Read-outs that look alike come from different tables or passages of the source. Marks after values point to notes of the source that are not given here.
Experiments:
[1] = Octanol/water partition coefficient (logD7.4) by reversed-phase HPLC; settings: pH 7.4
Experimental: The flow was 0.9 mL/min. The aminobenzosuberone derivatives were dissolved at 0.4 µM in methanol. The standards were also dissolved in methanol. Column void volume was estimated from the retention time of uracil, which was included as a non-retained internal reference with each injection.

[2] = target: human leukotriene A4 hydrolase (rHsLTA4H); parameters: method as in PMID 21843945; settings: cited from earlier work; for Ki: ref 58; for % of inhibition of rHsLTA4H: determined at 100 µM
pAPN from porcine kidney = settings: Dixon plots; cited from earlier work
E. coli rEcPepN = E. coli rEcPepN (Escherichia coli, UniProt P04825); assay: rEcPepN inhibition, Leu-pNA substrate, Dixon method; type: biochemical
Experimental: Enzyme activity assays were carried out in 10 mM Tris-HCl buffer at pH 7.5 with 150 mM NaCl, enzyme, 100 µM substrate (Leu-pNA) in a 100 μL reaction at 37 °C. The absorbance was read at 405 nm. Concentrations ranging from 1 nM to 100 μM of inhibitors (dissolved in DMSO) were incubated with each of the enzymes ([…]) for 30 min at 37 °C in a 96 well plate. After addition of the substrate, immediate increase in absorption was measured. All inhibition assays were performed in triplicates and initial velocities were measured. Percentage inhibition and log values of inhibitor concentrations were plotted using SigmaPlot to determine IC50 values. Ki values were determined by the Dixon method. The assay consists of reaction buffer, enzyme and varied concentrations of Leu-pNA (25, 50, 100, 200 and 400 µM). […] Data were plotted as 1/rate versus inhibitor concentration for each substrate concentration and a linear fit was calculated by non-linear regression using SigmaPlot12.5. All the reactions were performed in triplicates, SD values were reported.

[3] = target: aminopeptidase from A. proteolytica (AAP); parameters: method as in PMID 21843945; settings: ref 58; cited from earlier work
P. falciparum rPfAM1 = target: T1, P. falciparum rPfAM1 (Plasmodium falciparum, UniProt O96935); assay: biochemical; type: biochemical
T1 construct: made in house; host or cells: Escherichia coli Rosetta 2 (DE3)
T1 sequence (O96935 1-1085): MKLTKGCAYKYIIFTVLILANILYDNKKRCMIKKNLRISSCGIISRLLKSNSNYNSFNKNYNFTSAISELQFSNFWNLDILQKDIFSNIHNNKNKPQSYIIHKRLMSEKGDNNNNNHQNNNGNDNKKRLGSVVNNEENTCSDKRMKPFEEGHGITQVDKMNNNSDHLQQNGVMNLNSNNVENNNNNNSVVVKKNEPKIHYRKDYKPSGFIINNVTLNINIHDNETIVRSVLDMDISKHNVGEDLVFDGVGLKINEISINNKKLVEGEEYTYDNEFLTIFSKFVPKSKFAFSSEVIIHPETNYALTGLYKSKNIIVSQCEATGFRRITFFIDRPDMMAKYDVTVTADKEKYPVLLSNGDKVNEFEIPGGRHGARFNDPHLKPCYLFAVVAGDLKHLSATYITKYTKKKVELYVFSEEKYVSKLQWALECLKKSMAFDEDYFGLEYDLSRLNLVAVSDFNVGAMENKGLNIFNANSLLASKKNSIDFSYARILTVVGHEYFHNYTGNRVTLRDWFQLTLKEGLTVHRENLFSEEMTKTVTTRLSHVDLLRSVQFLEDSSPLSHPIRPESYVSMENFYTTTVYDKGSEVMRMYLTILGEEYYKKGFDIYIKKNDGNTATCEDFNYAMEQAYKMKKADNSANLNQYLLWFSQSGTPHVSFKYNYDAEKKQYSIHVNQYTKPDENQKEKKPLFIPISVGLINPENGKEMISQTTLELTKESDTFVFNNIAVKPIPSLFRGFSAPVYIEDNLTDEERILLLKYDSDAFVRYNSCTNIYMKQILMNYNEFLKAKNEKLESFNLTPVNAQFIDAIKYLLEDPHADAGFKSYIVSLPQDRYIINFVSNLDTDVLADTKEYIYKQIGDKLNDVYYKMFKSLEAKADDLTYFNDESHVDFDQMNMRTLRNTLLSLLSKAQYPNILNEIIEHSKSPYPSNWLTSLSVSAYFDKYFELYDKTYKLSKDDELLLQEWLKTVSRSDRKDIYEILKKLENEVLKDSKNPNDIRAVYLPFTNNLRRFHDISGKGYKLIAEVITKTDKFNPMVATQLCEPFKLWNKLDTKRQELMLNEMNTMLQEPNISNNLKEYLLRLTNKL
Experimental: Initial velocities were measured with increasing concentrations of inhibitors and Ki values were determined by Dixon plots in triplicate.

[4] = target: T2, human endoplasmic reticulum aminopeptidase 2 (rHsERAP2) (Homo sapiens, UniProt Q6P179); assay: rHsERAP2 inhibition, R-AMC fluorigenic substrate; type: biochemical; settings: 50 µM R-AMC
T2 construct: made in house; host or cells: Hi5 insect cells (baculovirus produced in sf9)
Experimental: (§1) The enzymatic activity of HsERAP1, HsERAP2 and HsIRAP was determined by following the time-dependent increase in fluorescence at 460 nm (excitation: 380 nm) of the fluorigenic substrates L-Leucine-7-amido-4-methyl coumarin (L-AMC; Sigma, Darmstatd, Germany) for HsERAP1 and HsIRAP and L-arginyl-7-amido-4-methyl coumarin (R-AMC; Sigma) for HsERAP2. […] The reaction was followed for 10 min at room temperature and the remaining enzymatic activity was calculated by measuring the slope of the time course.

[5] = target: human puromycine sensitive aminopeptidase (rHsPSA) (Homo sapiens, UniProt P55786); assay: rHsPSA inhibition, Leu-pNA substrate, Dixon method; type: biochemical; settings: triplicate, SD
Experimental: Enzyme activity assays were carried out in 10 mM Tris-HCl buffer at pH 7.5 with 150 mM NaCl, enzyme, 100 µM substrate (Leu-pNA) in a 100 μL reaction at 37 °C. The absorbance was read at 405 nm. Concentrations ranging from 1 nM to 100 μM of inhibitors (dissolved in DMSO) were incubated with each of the enzymes ([…]) for 30 min at 37 °C in a 96 well plate. After addition of the substrate, immediate increase in absorption was measured. All inhibition assays were performed in triplicates and initial velocities were measured. Percentage inhibition and log values of inhibitor concentrations were plotted using SigmaPlot to determine IC50 values. Ki values were determined by the Dixon method. The assay consists of reaction buffer, enzyme and varied concentrations of Leu-pNA (25, 50, 100, 200 and 400 µM). […]. All the reactions were performed in triplicates, SD values were reported.

[6] = target: T3, human endoplasmic reticulum aminopeptidase 1 (rHsERAP1) (Homo sapiens, UniProt Q9NZ08); assay: rHsERAP1 inhibition, L-AMC fluorigenic substrate; type: biochemical; settings: 50 µM L-AMC
T3 construct: made in house; host or cells: Hi5 insect cells (baculovirus produced in sf9)
Experimental: as §1

P. falciparum rPfAM17 = target: T4, P. falciparum rPfAM17 (Plasmodium falciparum, UniProt Q8IL11); assay: rPfAM17 inhibition, Leu-pNA substrate, Dixon plots; type: biochemical
T4 construct: made in house; host or cells: Escherichia coli Rosetta 2 (DE3)
T4 sequence (Q8IL11 1-605): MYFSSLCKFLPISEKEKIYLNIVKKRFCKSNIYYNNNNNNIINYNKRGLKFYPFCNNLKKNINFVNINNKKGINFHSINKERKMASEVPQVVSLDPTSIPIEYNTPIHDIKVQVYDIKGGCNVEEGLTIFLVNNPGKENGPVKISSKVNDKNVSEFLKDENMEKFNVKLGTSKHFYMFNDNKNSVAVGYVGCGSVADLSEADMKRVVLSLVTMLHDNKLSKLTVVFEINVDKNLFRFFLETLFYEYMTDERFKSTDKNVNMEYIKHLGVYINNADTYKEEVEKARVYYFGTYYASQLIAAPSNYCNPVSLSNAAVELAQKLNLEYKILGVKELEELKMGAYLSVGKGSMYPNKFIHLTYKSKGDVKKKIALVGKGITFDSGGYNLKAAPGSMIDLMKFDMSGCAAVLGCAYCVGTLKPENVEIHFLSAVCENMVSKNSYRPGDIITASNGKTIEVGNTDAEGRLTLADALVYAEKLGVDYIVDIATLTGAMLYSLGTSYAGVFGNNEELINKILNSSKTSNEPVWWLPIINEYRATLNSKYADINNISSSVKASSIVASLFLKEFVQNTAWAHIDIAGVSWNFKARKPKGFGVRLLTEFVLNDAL
Experimental: Tests were carried out on HP/Agilent UV-Visible diode array spectrophotometer 8453 (HP/Agilent, Santa Clara, CA, USA), at 30 °C in Tris HCl 50 mM pH 7.4 for rPfAM1 and pH 8 for rPfAM17, with a final DMSO concentration of 1%. […]. […] Initial velocities were measured with increasing concentrations of inhibitors and Ki values were determined by Dixon plots in triplicate.

[7] = target: T5, human Leucyl-cystinyl aminopeptidase (rHsIRAP) (Homo sapiens, UniProt Q9UIQ6); assay: rHsIRAP inhibition, L-AMC fluorigenic substrate; type: biochemical
T5 construct: made in house; host or cells: Hi5 insect cells (baculovirus produced in sf9)
Experimental: The enzymatic activity of HsERAP1, HsERAP2 and HsIRAP was determined by following the time-dependent increase in fluorescence at 460 nm (excitation: 380 nm) of the fluorigenic substrates L-Leucine-7-amido-4-methyl coumarin (L-AMC; Sigma, Darmstatd, Germany) for HsERAP1 and HsIRAP and L-arginyl-7-amido-4-methyl coumarin (R-AMC; Sigma) for HsERAP2. […]. The reaction was followed for 10 min at room temperature and the remaining enzymatic activity was calculated by measuring the slope of the time course. […]

[8] = Dixon plots, triplicate, read-out: Ki rPfAM1
[9] = 50 µM L-AMC, read-out: IC50 rHsIRAP

T2 sequence (Q6P179 whole entry): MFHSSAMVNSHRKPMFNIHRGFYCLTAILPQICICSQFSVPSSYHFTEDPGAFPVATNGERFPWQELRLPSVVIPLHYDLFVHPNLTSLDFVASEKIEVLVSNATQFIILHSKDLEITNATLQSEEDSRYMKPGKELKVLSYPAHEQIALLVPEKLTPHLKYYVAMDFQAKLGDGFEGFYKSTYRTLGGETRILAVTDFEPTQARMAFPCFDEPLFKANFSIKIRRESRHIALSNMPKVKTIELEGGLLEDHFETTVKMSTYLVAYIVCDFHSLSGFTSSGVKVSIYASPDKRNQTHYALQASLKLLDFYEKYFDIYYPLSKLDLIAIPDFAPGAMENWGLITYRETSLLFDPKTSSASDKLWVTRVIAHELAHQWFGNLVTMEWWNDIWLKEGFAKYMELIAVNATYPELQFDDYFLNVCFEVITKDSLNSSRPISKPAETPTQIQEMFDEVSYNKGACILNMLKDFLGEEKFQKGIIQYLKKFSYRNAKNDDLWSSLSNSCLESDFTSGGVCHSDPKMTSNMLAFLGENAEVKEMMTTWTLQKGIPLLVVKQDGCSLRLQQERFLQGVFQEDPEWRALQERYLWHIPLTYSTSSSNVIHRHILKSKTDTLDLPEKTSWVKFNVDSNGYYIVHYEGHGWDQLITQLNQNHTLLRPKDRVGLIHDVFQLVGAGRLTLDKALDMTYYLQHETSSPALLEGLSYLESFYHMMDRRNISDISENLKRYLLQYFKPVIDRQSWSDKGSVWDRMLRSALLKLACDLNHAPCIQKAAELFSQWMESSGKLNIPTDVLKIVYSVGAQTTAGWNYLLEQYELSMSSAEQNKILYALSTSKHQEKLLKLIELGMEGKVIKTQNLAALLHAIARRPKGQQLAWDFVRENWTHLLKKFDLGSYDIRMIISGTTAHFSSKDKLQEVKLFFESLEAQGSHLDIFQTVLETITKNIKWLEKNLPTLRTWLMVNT
E. coli rEcPepN, sequence (P04825 whole entry): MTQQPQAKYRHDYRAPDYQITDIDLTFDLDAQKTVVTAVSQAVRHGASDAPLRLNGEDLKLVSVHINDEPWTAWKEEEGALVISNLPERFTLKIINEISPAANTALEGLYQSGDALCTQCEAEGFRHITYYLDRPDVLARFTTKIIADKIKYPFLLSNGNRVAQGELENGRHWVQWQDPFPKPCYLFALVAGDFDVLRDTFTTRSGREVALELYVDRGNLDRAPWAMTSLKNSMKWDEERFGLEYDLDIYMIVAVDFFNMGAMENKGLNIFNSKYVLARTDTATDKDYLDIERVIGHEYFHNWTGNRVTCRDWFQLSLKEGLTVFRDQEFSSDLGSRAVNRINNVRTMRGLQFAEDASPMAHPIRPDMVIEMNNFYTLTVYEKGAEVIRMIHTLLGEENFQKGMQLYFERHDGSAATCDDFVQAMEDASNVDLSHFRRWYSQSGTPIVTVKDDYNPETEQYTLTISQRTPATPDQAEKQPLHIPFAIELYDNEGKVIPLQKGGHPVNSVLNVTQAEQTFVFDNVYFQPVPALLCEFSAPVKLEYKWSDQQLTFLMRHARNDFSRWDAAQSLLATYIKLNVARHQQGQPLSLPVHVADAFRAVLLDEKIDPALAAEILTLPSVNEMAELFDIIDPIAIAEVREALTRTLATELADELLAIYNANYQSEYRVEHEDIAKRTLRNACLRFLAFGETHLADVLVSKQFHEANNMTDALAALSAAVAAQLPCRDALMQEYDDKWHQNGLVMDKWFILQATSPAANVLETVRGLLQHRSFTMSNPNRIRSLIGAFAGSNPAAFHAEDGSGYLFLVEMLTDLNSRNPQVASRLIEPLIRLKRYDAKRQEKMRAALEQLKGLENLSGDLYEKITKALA
T5 sequence (Q9UIQ6 155-1025 limits assumed): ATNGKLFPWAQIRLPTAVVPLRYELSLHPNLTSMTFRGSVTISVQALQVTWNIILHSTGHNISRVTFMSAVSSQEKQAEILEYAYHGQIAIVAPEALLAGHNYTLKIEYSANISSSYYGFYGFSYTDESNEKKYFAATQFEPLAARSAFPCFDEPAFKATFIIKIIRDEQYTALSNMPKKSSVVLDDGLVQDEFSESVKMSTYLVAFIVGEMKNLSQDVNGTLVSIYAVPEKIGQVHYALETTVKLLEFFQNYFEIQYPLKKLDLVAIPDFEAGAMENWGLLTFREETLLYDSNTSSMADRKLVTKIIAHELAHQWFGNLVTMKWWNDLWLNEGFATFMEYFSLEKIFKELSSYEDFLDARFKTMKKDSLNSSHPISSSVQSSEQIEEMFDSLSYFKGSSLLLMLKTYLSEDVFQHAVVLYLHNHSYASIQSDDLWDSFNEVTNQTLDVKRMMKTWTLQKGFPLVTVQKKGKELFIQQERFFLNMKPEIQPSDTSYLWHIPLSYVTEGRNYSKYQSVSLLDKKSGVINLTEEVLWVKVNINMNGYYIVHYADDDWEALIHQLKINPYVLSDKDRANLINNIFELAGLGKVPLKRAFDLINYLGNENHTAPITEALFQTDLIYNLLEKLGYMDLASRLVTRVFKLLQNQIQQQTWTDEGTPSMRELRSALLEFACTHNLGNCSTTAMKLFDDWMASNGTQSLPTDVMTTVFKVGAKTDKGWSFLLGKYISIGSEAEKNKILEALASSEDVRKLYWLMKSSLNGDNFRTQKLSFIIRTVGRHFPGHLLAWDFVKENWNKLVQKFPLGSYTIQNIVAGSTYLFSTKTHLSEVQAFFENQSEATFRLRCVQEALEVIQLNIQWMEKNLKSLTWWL
T3 sequence (Q9NZ08 whole entry): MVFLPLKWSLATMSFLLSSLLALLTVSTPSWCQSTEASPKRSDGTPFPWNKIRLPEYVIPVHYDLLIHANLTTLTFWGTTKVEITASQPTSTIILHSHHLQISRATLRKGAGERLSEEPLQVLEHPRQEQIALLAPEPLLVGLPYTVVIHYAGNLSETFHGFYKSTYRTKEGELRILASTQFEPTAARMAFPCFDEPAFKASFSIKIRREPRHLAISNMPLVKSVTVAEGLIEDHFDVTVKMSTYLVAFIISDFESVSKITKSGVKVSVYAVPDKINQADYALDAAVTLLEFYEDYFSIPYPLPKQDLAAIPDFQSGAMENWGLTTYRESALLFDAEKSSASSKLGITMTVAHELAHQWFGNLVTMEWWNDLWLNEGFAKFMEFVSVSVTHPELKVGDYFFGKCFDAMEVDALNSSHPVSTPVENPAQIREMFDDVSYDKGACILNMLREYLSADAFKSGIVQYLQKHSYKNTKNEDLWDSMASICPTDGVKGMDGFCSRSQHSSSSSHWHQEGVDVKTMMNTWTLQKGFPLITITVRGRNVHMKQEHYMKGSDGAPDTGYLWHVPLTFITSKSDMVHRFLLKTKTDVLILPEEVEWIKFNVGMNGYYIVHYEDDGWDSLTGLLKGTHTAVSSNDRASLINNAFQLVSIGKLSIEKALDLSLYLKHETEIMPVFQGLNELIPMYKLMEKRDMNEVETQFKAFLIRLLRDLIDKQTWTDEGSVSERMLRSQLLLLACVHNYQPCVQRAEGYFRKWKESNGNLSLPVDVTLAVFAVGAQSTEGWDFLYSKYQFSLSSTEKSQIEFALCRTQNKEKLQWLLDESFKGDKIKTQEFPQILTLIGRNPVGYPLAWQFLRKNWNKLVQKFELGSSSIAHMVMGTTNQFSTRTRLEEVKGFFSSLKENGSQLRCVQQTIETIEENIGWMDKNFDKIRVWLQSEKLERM
human puromycine sensitive aminopeptidase (rHsPSA), sequence (P55786 whole entry): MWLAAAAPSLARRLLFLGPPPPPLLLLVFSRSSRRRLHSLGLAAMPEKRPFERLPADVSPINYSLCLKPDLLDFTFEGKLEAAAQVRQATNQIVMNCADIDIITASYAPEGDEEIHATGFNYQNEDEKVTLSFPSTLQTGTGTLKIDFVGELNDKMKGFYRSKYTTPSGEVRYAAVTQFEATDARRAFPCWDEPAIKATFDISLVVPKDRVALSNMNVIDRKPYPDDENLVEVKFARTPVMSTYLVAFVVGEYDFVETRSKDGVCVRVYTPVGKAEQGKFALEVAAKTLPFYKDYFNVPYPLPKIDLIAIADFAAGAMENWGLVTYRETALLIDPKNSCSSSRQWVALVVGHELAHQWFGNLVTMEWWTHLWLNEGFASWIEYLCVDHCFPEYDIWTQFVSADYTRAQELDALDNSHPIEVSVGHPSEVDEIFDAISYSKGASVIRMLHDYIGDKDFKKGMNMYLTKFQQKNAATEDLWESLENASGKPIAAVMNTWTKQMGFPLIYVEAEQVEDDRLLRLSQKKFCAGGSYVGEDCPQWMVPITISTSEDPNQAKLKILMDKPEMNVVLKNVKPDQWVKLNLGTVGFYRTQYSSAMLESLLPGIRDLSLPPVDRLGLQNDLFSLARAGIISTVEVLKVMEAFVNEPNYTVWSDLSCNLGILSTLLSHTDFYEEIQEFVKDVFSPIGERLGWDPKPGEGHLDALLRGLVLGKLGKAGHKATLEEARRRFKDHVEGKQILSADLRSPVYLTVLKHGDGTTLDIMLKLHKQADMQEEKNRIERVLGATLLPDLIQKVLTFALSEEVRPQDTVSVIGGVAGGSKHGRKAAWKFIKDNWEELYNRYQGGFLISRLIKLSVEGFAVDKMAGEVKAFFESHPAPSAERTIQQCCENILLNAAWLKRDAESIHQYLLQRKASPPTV

For `NC1CCc2ccccc2CC1=O` (centres unmarked) [21a], the chromatographic logD [1] is given as 0.54, the Ki [2] is given as > 100000 nM and the Ki (pAPN from porcine kidney) is given as 1000 nM. The Ki (E. coli rEcPepN) was 50000 ± 3000 nM, the Ki [3] was > 100000 nM and the Ki (P. falciparum rPfAM1; [8]) was 15000 ± 70 nM.

In the case of `NC1CCc2cccc(Br)c2CC1=O` (centres unmarked) [21b], the IC50 [4] is listed as 49000 ± 3800 nM, the chromatographic logD [1] is listed as 1.28 and the Ki [2] is listed as > 100000 nM. The Ki (pAPN from porcine kidney) was 40 nM, the Ki [5] was 1630 ± 80 nM and the Ki (E. coli rEcPepN) was 1070 ± 110 nM. For the same compound, the Ki [3] was > 100000 nM, the IC50 [6] was 120000 ± 11000 nM and the Ki (P. falciparum rPfAM17) was > 100000 nM. The IC50 [7, 9] was 1000 ± 80 nM.

For `NC1CCc2c(cccc2-c2ccccc2)CC1=O` (centres unmarked) [21f], the IC50 [4] is listed as > 200000 nM, the chromatographic logD [1] is listed as 2.22 and the Ki [2] is listed as > 100000 nM. The Ki (pAPN from porcine kidney) was 250 nM, the Ki [3] was > 100000 nM and the IC50 [6] was 137000 ± 5000 nM. For the same compound, the Ki (P. falciparum rPfAM17) was > 100000 nM, the IC50 [7, 9] was 2200 ± 130 nM and the Ki (P. falciparum rPfAM1) was 2000 ± 70 nM.

In the case of `NC1CCc2c(ccc3ccccc23)CC1=O` (centres unmarked) [21g], the chromatographic logD [1] is given as 1.67, the Ki [2] is given as > 100000 nM and the Ki (pAPN from porcine kidney) is given as 40 nM. The Ki [3] was > 100000 nM and the Ki (P. falciparum rPfAM1; [8]) was 15000 ± 1000 nM.

For `NC1CCc2c(Br)ccc(Br)c2CC1=O` (centres unmarked) [21h], the chromatographic logD [1] was 2.48, the IC50 [7] was 34 ± 1 nM and the Ki ([7]; read-out: Ki HsIRAP) was 34 nM. It also gave a Ki (P. falciparum rPfAM1; [8]) of 5 ± 1 nM.

For `NC1CCc2c(Br)ccc(-c3ccccc3)c2CC1=O` (centres unmarked) [21i], the IC50 [4] is listed as 390 ± 13 nM, the chromatographic logD [1] is listed as 3.12 and the “% of inhibition of rHsLTA4H” value [2] is listed as 68% ^#. For the same compound, the Ki (pAPN from porcine kidney) was 0.06 nM, the Ki [5] was 21 ± 3 nM and the Ki (E. coli rEcPepN; Dixon method, triplicate, SD, read-out: Ki rEcPepN) was 50 ± 3 nM. For the same compound, the “times more potent than 21c on EcPepN” value (E. coli rEcPepN; ratio of Ki values, 21i versus 21c) was 3, the Ki [3] was 39000 nM and the IC50 [6] was 1600 ± 100 nM. The IC50 [7] was 120 ± 15 nM and the Ki (P. falciparum rPfAM1) was 30 ± 5 nM.

In the case of `NC1CCc2c(-c3ccccc3)ccc(Br)c2CC1=O` (centres unmarked) [21j], the chromatographic logD [1] is given as 3.06, the “% of inhibition of rHsLTA4H” value [2] is given as 54% ^# and the Ki (pAPN from porcine kidney) is given as 70 nM. The Ki [3] was > 100000 nM and the Ki (P. falciparum rPfAM1; [8]) was 4000 ± 700 nM.
